Assay results reported in ChEMBL document CHEMBL4831553, “Heterocyclic Compounds as Dihydroorotate Dehydrogenase Inhibitors for Treating Acute Myelogenous Leukemia (AML)” (ACS Med Chem Lett, 2021).

Experiments:
MOLM-13 = test: Antiproliferative activity against human MOLM-13 assessed as reduction in cell viability incubated for 72 hrs by Cell titer-Glo assay; assay type: functional, cell-based; details: MOLM-13, 72 h
[1] = molecular target: Dihydroorotate dehydrogenase (quinone), mitochondrial (Homo sapiens, UniProt Q02127); test: Inhibition of human DHODH using dihydroorotate as substrate and CoQ6 as co-substrate by DCIP dye based spectrophotometry analysis
Dihydroorotate dehydrogenase (quinone), mitochondrial, sequence (Q02127 whole entry): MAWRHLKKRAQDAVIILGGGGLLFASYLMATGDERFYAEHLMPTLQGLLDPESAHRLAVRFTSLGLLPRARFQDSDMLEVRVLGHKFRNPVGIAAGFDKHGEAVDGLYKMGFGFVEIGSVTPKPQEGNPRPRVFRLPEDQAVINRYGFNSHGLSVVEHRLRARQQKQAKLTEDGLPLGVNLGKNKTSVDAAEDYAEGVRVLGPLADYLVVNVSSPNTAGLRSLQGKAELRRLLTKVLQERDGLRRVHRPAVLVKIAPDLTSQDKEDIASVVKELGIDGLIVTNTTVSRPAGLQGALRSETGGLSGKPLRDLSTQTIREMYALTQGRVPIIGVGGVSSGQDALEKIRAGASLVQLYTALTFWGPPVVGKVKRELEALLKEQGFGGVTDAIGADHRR

Structure (SMILES)	IC50 (MOLM-13)	IC50 [1]
CCn1c(CO)nn(-c2nc(O[C@@H](C)C(F)(F)F)c3c(Nc4c(F)cccc4Cl)nncc3c2F)c1=O	0.46 nM	0.38 nM
CCn1c(CO)nn(-c2cc(O[C@@H](C)C(F)(F)F)c3c(Oc4c(F)ccc(OCCOC)c4Cl)nccc3c2)c1=O	0.3 nM	0.41 nM
CCn1c(CO)nn(-c2nc(OC(C)C(F)(F)F)c3c(Oc4c(F)cccc4Cl)nccc3c2F)c1=O (configuration not stated)	0.4 nM	0.59 nM
CCn1c(CO)nn(-c2cc(O[C@@H](C)C(F)(F)F)c3c(Oc4c(F)ccc(N(C)C)c4Cl)nccc3c2)c1=O	0.3 nM	0.4 nM

The remaining lines, values ahead:

IC50 (MOLM-13)	IC50 [1]	Structure (SMILES)
0.3 nM	0.3 nM	CCn1c(CO)nn(-c2cc(O[C@@H](C)C(F)(F)F)c3c(Oc4c(F)ccc(OC)c4Cl)nccc3c2)c1=O
0.2 nM	0.2 nM	CCn1c(CO)nn(-c2nc(O[C@@H](C)C(F)(F)F)c3c(Oc4c(F)cccc4Cl)nncc3c2F)c1=O
